Measurements from US20200264182A1, “METHOD FOR DETECTING PROSTATE CANCER” (J-OIL MILLS, INC., priority 2017, published 2020).
Where no end group is shown, it is not given here.

Assay: FAC binding constant
Details: at 25° C.
Outline: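 At 25° C, FAC gave the affinity constants of the lectins PhoSL, SRL, NSL and LSL for a range of sugar chains.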

[1] = sugar chain having fucose other than α1→6 fucose

PhoSL: fucose α1→6 specific lectin that can be extracted from Pholiota squarrosa, SEQ ID No. 1 (APVPVTKLVCDGDTYKCTAYLDFGDGRWVAQWDTNVFHTG; not fully specified; ends and bridges not checked)
Binding constant for sugar chain No. 728 (Table 3: sugar chain having fucose other than α1→6 fucose): <1000 M⁻¹
Binding constant for sugar chain No. 419 [1]: <1000 M⁻¹
Binding constant for sugar chain No. 420 [1]: <1000 M⁻¹
Binding constant for sugar chain No. 718 [1]: <1000 M⁻¹
Binding constant for sugar chain No. 719 [1]: <1000 M⁻¹
Binding constant for sugar chain No. 720 [1]: <1000 M⁻¹
Binding constant for sugar chain No. 721 [1]: <1000 M⁻¹
Binding constant for sugar chain No. 722 [1]: <1000 M⁻¹
Binding constant for sugar chain No. 723 [1]: <1000 M⁻¹
Binding constant for sugar chain No. 726 [1]: <1000 M⁻¹
Binding constant for sugar chain No. 727 [1]: <1000 M⁻¹
Binding constant for sugar chain No. 729 [1]: <1000 M⁻¹
Binding constant for sugar chain No. 730 [1]: <1000 M⁻¹
Binding constant for sugar chain No. 731 [1]: <1000 M⁻¹
Binding constant for sugar chain No. 739 [1]: <1000 M⁻¹
Binding constant for sugar chain No. 909 [1]: <1000 M⁻¹
Binding constant for sugar chain No. 910 [1]: <1000 M⁻¹
Binding constant for sugar chain No. 931 [1]: <1000 M⁻¹
Binding constant for sugar chain No. 932 [1]: <1000 M⁻¹
Binding constant for sugar chain No. 933 [1]: <1000 M⁻¹
Binding constant for sugar chain No. 001 (sugar chain having no fucose): <1000 M⁻¹
Binding constant for sugar chain No. 002 (sugar chain having no fucose): <1000 M⁻¹
Binding constant for sugar chain No. 003 (sugar chain having no fucose): <1000 M⁻¹
Binding constant for sugar chain No. 004 (sugar chain having no fucose): <1000 M⁻¹
Binding constant for sugar chain No. 005 (sugar chain having no fucose): <1000 M⁻¹
Binding constant for sugar chain No. 006 (sugar chain having no fucose): <1000 M⁻¹
Binding constant for sugar chain No. 007 (sugar chain having no fucose): <1000 M⁻¹
Binding constant for sugar chain No. 008 (sugar chain having no fucose): <1000 M⁻¹
Binding constant for sugar chain No. 009 (sugar chain having no fucose): <1000 M⁻¹
Binding constant for sugar chain No. 010 (sugar chain having no fucose): <1000 M⁻¹
Binding constant for sugar chain No. 011 (sugar chain having no fucose): <1000 M⁻¹
Binding constant for sugar chain No. 012 (sugar chain having no fucose): <1000 M⁻¹
Binding constant for sugar chain No. 013 (sugar chain having no fucose): <1000 M⁻¹
Binding constant for sugar chain No. 014 (sugar chain having no fucose): <1000 M⁻¹
Binding constant for sugar chain No. 101 (sugar chain having no fucose): <1000 M⁻¹
Binding constant for sugar chain No. 103 (sugar chain having no fucose): <1000 M⁻¹
Binding constant for sugar chain No. 104 (sugar chain having no fucose): <1000 M⁻¹
Binding constant for sugar chain No. 105 (sugar chain having no fucose): <1000 M⁻¹
Binding constant for sugar chain No. 107 (sugar chain having no fucose): <1000 M⁻¹
Binding constant for sugar chain No. 108 (sugar chain having no fucose): <1000 M⁻¹
Binding constant for sugar chain No. 301 (sugar chain having no fucose): <1000 M⁻¹
Binding constant for sugar chain No. 304 (sugar chain having no fucose): <1000 M⁻¹
Binding constant for sugar chain No. 305 (sugar chain having no fucose): <1000 M⁻¹
Binding constant for sugar chain No. 307 (sugar chain having no fucose): <1000 M⁻¹
Binding constant for sugar chain No. 308 (sugar chain having no fucose): <1000 M⁻¹
Binding constant for sugar chain No. 313 (sugar chain having no fucose): <1000 M⁻¹
Binding constant for sugar chain No. 314 (sugar chain having no fucose): <1000 M⁻¹
Binding constant for sugar chain No. 323 (sugar chain having no fucose): <1000 M⁻¹
Binding constant for sugar chain No. 501 (sugar chain having no fucose): <1000 M⁻¹
Binding constant for sugar chain No. 502 (sugar chain having no fucose): <1000 M⁻¹
Binding constant for sugar chain No. 503 (sugar chain having no fucose): <1000 M⁻¹
Binding constant for sugar chain No. 504 (sugar chain having no fucose): <1000 M⁻¹
Binding constant for sugar chain No. 701 (sugar chain having no fucose): <1000 M⁻¹
Binding constant for sugar chain No. 702 (sugar chain having no fucose): <1000 M⁻¹
Binding constant for sugar chain No. 703 (sugar chain having no fucose): <1000 M⁻¹
Binding constant for sugar chain No. 704 (sugar chain having no fucose): <1000 M⁻¹
Binding constant for sugar chain No. 705 (sugar chain having no fucose): <1000 M⁻¹
Binding constant for sugar chain No. 706 (sugar chain having no fucose): <1000 M⁻¹
Binding constant for sugar chain No. 707 (sugar chain having no fucose): <1000 M⁻¹
Binding constant for sugar chain No. 708 (sugar chain having no fucose): <1000 M⁻¹
Binding constant for sugar chain No. 709 (sugar chain having no fucose): <1000 M⁻¹
Binding constant for sugar chain No. 710 (sugar chain having no fucose): <1000 M⁻¹
Binding constant for sugar chain No. 711 (sugar chain having no fucose): <1000 M⁻¹
Binding constant for sugar chain No. 712 (sugar chain having no fucose): <1000 M⁻¹
Binding constant for sugar chain No. 713 (sugar chain having no fucose): <1000 M⁻¹
Binding constant for sugar chain No. 715 (sugar chain having no fucose): <1000 M⁻¹
Binding constant for sugar chain No. 716 (sugar chain having no fucose): <1000 M⁻¹
Binding constant for sugar chain No. 717 (sugar chain having no fucose): <1000 M⁻¹
Binding constant for sugar chain No. 724 (sugar chain having no fucose): <1000 M⁻¹
Binding constant for sugar chain No. 725 (sugar chain having no fucose): <1000 M⁻¹
Binding constant for sugar chain No. 732 (sugar chain having no fucose): <1000 M⁻¹
Binding constant for sugar chain No. 733 (sugar chain having no fucose): <1000 M⁻¹
Binding constant for sugar chain No. 734 (sugar chain having no fucose): <1000 M⁻¹
Binding constant for sugar chain No. 735 (sugar chain having no fucose): <1000 M⁻¹
Binding constant for sugar chain No. 736 (sugar chain having no fucose): <1000 M⁻¹
Binding constant for sugar chain No. 737 (sugar chain having no fucose): <1000 M⁻¹
Binding constant for sugar chain No. 738 (sugar chain having no fucose): <1000 M⁻¹
Binding constant for sugar chain No. 901 (sugar chain having no fucose): <1000 M⁻¹
Binding constant for sugar chain No. 902 (sugar chain having no fucose): <1000 M⁻¹
Binding constant for sugar chain No. 903 (sugar chain having no fucose): <1000 M⁻¹
Binding constant for sugar chain No. 905 (sugar chain having no fucose): <1000 M⁻¹
Binding constant for sugar chain No. 906 (sugar chain having no fucose): <1000 M⁻¹
Binding constant for sugar chain No. 907 (sugar chain having no fucose): <1000 M⁻¹
Binding constant for sugar chain No. 015 (sugar chain having α1→6 fucose): 500000 M⁻¹
Binding constant for sugar chain No. 201 (sugar chain having α1→6 fucose): 460000 M⁻¹
Binding constant for sugar chain No. 202 (sugar chain having α1→6 fucose): 400000 M⁻¹
Binding constant for sugar chain No. 203 (sugar chain having α1→6 fucose): 330000 M⁻¹
Binding constant for sugar chain No. 401 (sugar chain having α1→6 fucose): 350000 M⁻¹
Binding constant for sugar chain No. 402 (sugar chain having α1→6 fucose): 200000 M⁻¹
Binding constant for sugar chain No. 403 (sugar chain having α1→6 fucose): 340000 M⁻¹
Binding constant for sugar chain No. 404 (sugar chain having α1→6 fucose): 390000 M⁻¹
Binding constant for sugar chain No. 405 (sugar chain having α1→6 fucose): 320000 M⁻¹
Binding constant for sugar chain No. 406 (sugar chain having α1→6 fucose): 220000 M⁻¹
Binding constant for sugar chain No. 407 (sugar chain having α1→6 fucose): 280000 M⁻¹
Binding constant for sugar chain No. 410 (sugar chain having α1→6 fucose): 220000 M⁻¹
Binding constant for sugar chain No. 413 (sugar chain having α1→6 fucose): 280000 M⁻¹
Binding constant for sugar chain No. 418 (sugar chain having α1→6 fucose): 220000 M⁻¹
Binding constant for sugar chain No. 601 (sugar chain having α1→6 fucose): 240000 M⁻¹
Binding constant for sugar chain No. 602 (sugar chain having α1→6 fucose): 120000 M⁻¹
